The record followed here is ChEMBL document CHEMBL6121038, “Design and Synthesis of Hederagenin Derivatives for the Treatment of Sepsis by Targeting TAK1 and Regulating the TAK1-NF-κB/MAPK Signaling” (J Med Chem, 2025).

Data set [1] relates to RAW264.7. The data set is described as follows: Antiinflammatory activity in LPS-induced mouse RAW264.7 cells assessed as inhibition of IL-6 level at 20 uM incubated for 24 hrs by ELISA method relative to control. In kind it is functional.
In data set [2] the test system is RAW264.7. Description: Antiinflammatory activity in LPS-induced mouse RAW264.7 cells assessed as inhibition of TNF-alpha level at 20 uM incubated for 24 hrs by ELISA method relative to control. In kind it is functional. In general terms: ELISA stands for enzyme-linked immunosorbent assay.
The subject of data set [3] is RAW264.7. The data set is described as follows: Cytotoxicity against mouse RAW264.7 cells assessed as cell viability at 40 uM measured after 24 hrs by MTT assay. In kind it is toxicity, cell-based. As to conditions: raw264.7, 24 h.
Data set [4] in a line: AUC (0 to t) in BALB/c mouse at 10 mg/kg, po measured upto 24 hrs by LC/MS-MS analysis. The format is ADME, organism-based. Particulars: in vivo.
Data set [5] is described as follows: Half life in BALB/c mouse at 10 mg/kg, po measured upto 24 hrs by LC/MS-MS analysis. The format is ADME, organism-based. As to conditions: in vivo.
Data set [6] is described as follows: AUC (0 to infinity) in BALB/c mouse at 10 mg/kg, po measured upto 24 hrs by LC/MS-MS analysis. In kind it is ADME, organism-based. As to conditions: in vivo.
The nature of data set [7]: Tmax in BALB/c mouse at 10 mg/kg, po measured upto 24 hrs by LC/MS-MS analysis. The format is ADME, organism-based. As to conditions: in vivo.
Data set [8] in a line: Cmax in BALB/c mouse at 10 mg/kg, po measured upto 24 hrs by LC/MS-MS analysis. As to conditions: in vivo. The format is ADME, organism-based.
The nature of data set [9]: Toxicity in BALB/c mouse assessed as histopathological lesions in lung at 10 mg/kg, po by H and E staining based analysis. Particulars: in vivo. In kind it is organism-based.

Take `CCOC(=O)c1noc2c1C[C@@]1(C)[C@@H](CC[C@]3(C)[C@@H]1CC=C1[C@@H]4CC(C)(C)CC[C@]4(C(=O)OCc4ccccc4)CC[C@]13C)[C@]2(C)COC(=O)CCC(=O)N[C@@H](CC(C)C)C(=O)OC`: the inhibition at 20 µM with RAW264.7 [1] was found to be 25.7%; in the data set with RAW264.7 [2] it was 33.1%. For the same molecule, in the data set with RAW264.7 [3], the Activity result was “Non-toxic”.
Turning to `CCOC(=O)c1noc2c1C[C@@]1(C)[C@@H](CC[C@]3(C)[C@@H]1CC=C1[C@@H]4CC(C)(C)CC[C@]4(C(=O)OCc4ccccc4)CC[C@]13C)[C@]2(C)COC(=O)c1cc2ccccc2[nH]1`, the inhibition at 20 µM worked out at 15% in the data set on RAW264.7 [1] and 9.1% in the data set with RAW264.7 [2]. Besides, the Activity entry in the data set with RAW264.7 [3] was “Non-toxic”.
The matching figures for `CCOC(=O)c1noc2c1C[C@@]1(C)[C@@H](CC[C@]3(C)[C@@H]1CC=C1[C@@H]4CC(C)(C)CC[C@]4(C(=O)OCc4ccccc4)CC[C@]13C)[C@]2(C)COC(=O)c1cnccn1`: 5.92%, 8.27% and “Non-toxic”.
The like results for `CCOC(=O)c1noc2c1C[C@@]1(C)[C@@H](CC[C@]3(C)[C@@H]1CC=C1[C@@H]4CC(C)(C)CC[C@]4(C(=O)OCc4ccccc4)CC[C@]13C)[C@]2(C)COC(=O)c1ccccc1C(=O)N1CCN(C(C)C)CC1` were, in that order, 11.4%, 22.9% and “Non-toxic”.
As to `CCOC(=O)c1noc2c1C[C@@]1(C)[C@@H](CC[C@]3(C)[C@@H]1CC=C1[C@@H]4CC(C)(C)CC[C@]4(C(=O)OCc4ccccc4)CC[C@]13C)[C@]2(C)COC(=O)[C@H](CCC(=O)OC)NC(=O)OC(C)(C)C`, the inhibition at 20 µM with RAW264.7 [1] turned out to be 55.4%; in the data set on RAW264.7 [2] it was 60%. Further, in the data set with RAW264.7 [3], the Activity entry is listed as “Non-toxic”.
In turn, `CC1(C)CC[C@]2(C(=O)OCc3ccccc3)CC[C@]3(C)C(=CC[C@@H]4[C@@]5(C)Cc6c(C(=O)O)noc6[C@@](C)(CO)[C@@H]5CC[C@]43C)[C@@H]2C1` gave an AUC(0-t) at 24 h in data set [4] of 2580 ng·h/mL. For the same molecule, the half-life in [5] is 5.54 h. In data set [6], this molecule gave an AUC(0-inf) of 2720 ng·h/mL. Further, the Tmax in data set [7] was 3 h. This molecule displayed a Cmax in data set [8] of 285 ng/mL.
Consider `CCOC(=O)c1noc2c1C[C@@]1(C)[C@@H](CC[C@]3(C)[C@@H]1CC=C1[C@@H]4CC(C)(C)CC[C@]4(C(=O)OCc4ccccc4)CC[C@]13C)[C@]2(C)COC(=O)CCn1cccc1`, for which the inhibition at 20 µM in the data set on RAW264.7 [1] worked out at 46.2%; in the data set with RAW264.7 [2] it was 52.5%. For the same molecule, in the data set with RAW264.7 [3], the Activity result is on record as “Non-toxic”.
Turning to `CCOC(=O)c1noc2c1C[C@@]1(C)[C@@H](CC[C@]3(C)[C@@H]1CC=C1[C@@H]4CC(C)(C)CC[C@]4(C(=O)OCc4ccccc4)CC[C@]13C)[C@]2(C)COC(=O)c1ccccc1C(=O)N[C@@H](CCC(=O)OC)C(=O)OC`, the inhibition at 20 µM worked out at 8.65% with RAW264.7 [1] and 14.8% in the data set with RAW264.7 [2]. Further, the Activity entry in the data set on RAW264.7 [3] is “Non-toxic”.
The matching figures for `CCOC(=O)c1noc2c1C[C@@]1(C)[C@@H](CC[C@]3(C)[C@@H]1CC=C1[C@@H]4CC(C)(C)CC[C@]4(C(=O)OCc4ccccc4)CC[C@]13C)[C@]2(C)COC(=O)CCSSCCC(=O)N1CCCCC1`: 24.5%, 14.2% and “Non-toxic”.
In the case of `CCOC(=O)c1noc2c1C[C@@]1(C)[C@@H](CC[C@]3(C)[C@@H]1CC=C1[C@@H]4CC(C)(C)CC[C@]4(C(=O)OCc4ccccc4)CC[C@]13C)[C@]2(C)COC(=O)CCSSCCC(=O)N1CCN(CC)CC1`, the values for the inhibition at 20 µM in the data set with RAW264.7 [1] and in the data set on RAW264.7 [2] were 26.8% and 22.7%, respectively.
As to `CCOC(=O)c1noc2c1C[C@@]1(C)[C@@H](CC[C@]3(C)[C@@H]1CC=C1[C@@H]4CC(C)(C)CC[C@]4(C(=O)OCc4ccccc4)CC[C@]13C)[C@]2(C)COC(=O)CCC(=O)N1CCN(C(C)C)CC1`, the inhibition at 20 µM in the data set on RAW264.7 [1] stood at 68.6%; with RAW264.7 [2], 78.1%. In addition, the Activity result with RAW264.7 [3] is “Non-toxic”.
The like results for `CCOC(=O)c1noc2c1C[C@@]1(C)[C@@H](CC[C@]3(C)[C@@H]1CC=C1[C@@H]4CC(C)(C)CC[C@]4(C(=O)OCc4ccccc4)CC[C@]13C)[C@]2(C)COC(=O)CCC(=O)N[C@@H](CC(=O)OC)C(=O)OC` were, in that order, 37.6%, 54.3% and “Non-toxic”.
For the molecule `CCOC(=O)c1noc2c1C[C@@]1(C)[C@@H](CC[C@]3(C)[C@@H]1CC=C1[C@@H]4CC(C)(C)CC[C@]4(C(=O)OCc4ccccc4)CC[C@]13C)[C@]2(C)COC(=O)[C@H](CC(C)C)NC(=O)OC(C)(C)C`, the inhibition at 20 µM in the data set on RAW264.7 [1] amounted to 4.25%; with RAW264.7 [2] it was 7.45%. For the same molecule, the Activity result in the data set on RAW264.7 [3] was “Non-toxic”.
The like results for `CCOC(=O)c1noc2c1C[C@@]1(C)[C@@H](CC[C@]3(C)[C@@H]1CC=C1[C@@H]4CC(C)(C)CC[C@]4(C(=O)OCc4ccccc4)CC[C@]13C)[C@]2(C)COC(=O)CCC(=O)N1CCN(CC)CC1` were, in that order, 66.3%, 75.4% and “Non-toxic”.
The like results for `CCOC(=O)c1noc2c1C[C@@]1(C)[C@@H](CC[C@]3(C)[C@@H]1CC=C1[C@@H]4CC(C)(C)CC[C@]4(C(=O)OCc4ccccc4)CC[C@]13C)[C@]2(C)COC(=O)CCC(=O)N[C@@H](Cc1ccccc1)C(=O)OC` were, in that order, 25%, 31.7% and “Non-toxic”.
The matching figures for `CCOC(=O)c1noc2c1C[C@@]1(C)[C@@H](CC[C@]3(C)[C@@H]1CC=C1[C@@H]4CC(C)(C)CC[C@]4(C(=O)OCc4ccccc4)CC[C@]13C)[C@]2(C)COC(=O)CCC(=O)N[C@@H](CCC(=O)OC)C(=O)OC`: 22%, 33.6% and “Non-toxic”.
For `CCOC(=O)c1noc2c1C[C@@]1(C)[C@@H](CC[C@]3(C)[C@@H]1CC=C1[C@@H]4CC(C)(C)CC[C@]4(C(=O)OCc4ccccc4)CC[C@]13C)[C@]2(C)COC(=O)CCSSCCC(=O)N[C@@H](CC(=O)OC)C(=O)OC`, the inhibition at 20 µM turned out to be 6.08% in the data set on RAW264.7 [1] and 7.53% in the data set with RAW264.7 [2]. In the data set on RAW264.7 [3], the Activity entry is listed as “Non-toxic”.
Turning to `CCOC(=O)c1noc2c1C[C@@]1(C)[C@@H](CC[C@]3(C)[C@@H]1CC=C1[C@@H]4CC(C)(C)CC[C@]4(C(=O)OCc4ccccc4)CC[C@]13C)[C@]2(C)COC(=O)CCc1c[nH]c2ccccc12`, the inhibition at 20 µM worked out at 18.9% in the data set with RAW264.7 [1] and 15.8% with RAW264.7 [2]. Also, in the data set with RAW264.7 [3], the Activity entry is listed as “Non-toxic”.
On to `CCOC(=O)c1noc2c1C[C@@]1(C)[C@@H](CC[C@]3(C)[C@@H]1CC=C1[C@@H]4CC(C)(C)CC[C@]4(C(=O)OCc4ccccc4)CC[C@]13C)[C@]2(C)COC(=O)[C@H](CCSC)NC(=O)OC(C)(C)C`, for which the results for the inhibition at 20 µM in the data set with RAW264.7 [1] and in the data set with RAW264.7 [2] were 11.7% and 15.3%, respectively. In addition, the Activity result with RAW264.7 [3] is listed as “Non-toxic”.
Regarding `CCOC(=O)c1noc2c1C[C@@]1(C)[C@@H](CC[C@]3(C)[C@@H]1CC=C1[C@@H]4CC(C)(C)CC[C@]4(C(=O)OCc4ccccc4)CC[C@]13C)[C@]2(C)COC(=O)CCC(=O)N[C@H](CCSC)C(=O)OC`, the inhibition at 20 µM was found to be 44.6% in the data set with RAW264.7 [1] and 52.2% in the data set with RAW264.7 [2]. The Activity result in the data set on RAW264.7 [3] is “Non-toxic”.
The like results for `CCOC(=O)c1noc2c1C[C@@]1(C)[C@@H](CC[C@]3(C)[C@@H]1CC=C1[C@@H]4CC(C)(C)CC[C@]4(C(=O)OCc4ccccc4)CC[C@]13C)[C@]2(C)COC(=O)CCC(=O)N1CCCCC1` were, in that order, 50.6%, 61% and “Non-toxic”.
Regarding `CCOC(=O)c1noc2c1C[C@@]1(C)[C@@H](CC[C@]3(C)[C@@H]1CC=C1[C@@H]4CC(C)(C)CC[C@]4(C(=O)OCc4ccccc4)CC[C@]13C)[C@]2(C)COC(=O)[C@H](Cc1ccccc1)NC(=O)OC(C)(C)C`, the inhibition at 20 µM was found to be 44.9% in the data set with RAW264.7 [1] and 59.3% in the data set on RAW264.7 [2]. Also, the Activity entry with RAW264.7 [3] is recorded as “Non-toxic”.
The molecule `CC1(C)CC[C@]2(C(=O)OCc3ccccc3)CC[C@]3(C)C(=CC[C@@H]4[C@@]5(C)Cc6c(C(=O)O)noc6[C@@](C)(COC(=O)CCC(=O)N6CCOCC6)[C@@H]5CC[C@]43C)[C@@H]2C1` yielded an AUC(0-t) at 24 h in data set [4] of 1290 ng·h/mL. This molecule gave a half-life in data set [5] of 4.49 h. In addition, the AUC(0-inf) in data set [6] was found to be 2020 ng·h/mL. Moreover, in [7], the Tmax amounted to 1.5 h. For the same molecule, the Cmax in [8] stood at 209 ng/mL.
In the case of `C[C@@H]1C[C@H]2[C@@H]3CCC4=CC(=O)C=C[C@]4(C)[C@@]3(F)[C@@H](O)C[C@]2(C)[C@@]1(O)C(=O)CO` [DEXAMETHASONE], the Activity entry in [9] is “Non-toxic”. Moreover, the inhibition at 20 µM in the data set with RAW264.7 [1] was found to be 73.5%; in the data set with RAW264.7 [2] it was 80.7%.

Usually inhibition stands for the relative decrease from the control value, in per cent. What is called AUC(0-t) is the area under the concentration-time curve up to a stated or last time point. High values mean more exposure, low ones less exposure. One may read the half-life as the time needed for the level to fall by half in the phase considered. A low value points to fast loss. A word on the AUC(0-inf): it is the area under the concentration-time curve extrapolated to infinity. A lower AUC(0-inf) goes with less exposure. A word on the Tmax: it is the time at which the peak concentration occurs. As usually defined, the Cmax is the highest concentration seen after dosing.
